According to patent US9221875B2, “Amphiphilic peptides for treatment of keratitis” (Agency for Science, Technology and Research, priority 2013, dated 2015):
Values after ≈ are worked out from the molar mass of the structure shown. Where two headings read alike, the source gives them in different places. Marks after values point to notes of the source that are not given here. Square brackets hold non-standard residues; d marks the D form. Peptide text beside a SMILES is read from it.

How the values were obtained:
P. aeruginosa [1] = conditions: 18 h
C. albicans [2] = tested on: C. albicans
E. coli [3] = conditions: 18 h
S. aureus [4] = conditions: 18 h
S. epidermidis [5] = conditions: 18 h
rabbit red blood cells = type: cell-based; conditions: red cells of rabbit, 1 h
[6] = tested on: 5 microorganisms tested (S. epidermidis, S. aureus, E. coli, P. aeruginosa, C. albicans); experiment: Mean MIC over the panel and selectivity index (Example 2)
[7] = tested on: clinically isolated Mycobacterium tuberculosis
E. coli [8] = conditions: 18 h; remark: listed apart in the source
S. epidermidis [9] = conditions: 18 h; remark: listed apart in the source
P. aeruginosa [10] = conditions: 18 h; remark: listed apart in the source
mice = conditions: reported values; cited from earlier work
C. albicans [11] = conditions: 42 h, room temperature
S. aureus [12] = conditions: 18 h; remark: listed apart in the source
[13] = tested on: 5 microorganisms tested (S. epidermidis, S. aureus, E. coli, P. aeruginosa, C. albicans); experiment: Mean MIC over the panel and selectivity index (Example 1); type: cell-based
Protocol: Red blood cells suspension incubated with PBS was used as negative control.

E. coli [14] = type: cell-based, Escherichia coli

| Molecule | MIC P aeruginosa (P. aeruginosa [1]) | MIC C. albicans (C. albicans [2]) | MIC E. coli (E. coli [3]) | MIC S. aureus (S. aureus [4]) | MIC S. epidermidis (S. epidermidis [5]) | HC10, haemolysis concentration 10%: lowest peptide concentration that induces ≧10% haemolysis (rabbit red blood cells) | GM, geometric mean of MIC values for the 5 microorganisms tested [6] | also measured |
| --- | --- | --- | --- | --- | --- | --- | --- | --- |
| CC[C@@H](C)[C@@H](N)C(=O)N[C@@H](C(=O)N[C@H](CCCNC(=N)N)C(=O)N[C@H](CCCCN)C(=O)N[C@@H](C(=O)N[C@@H](C(=O)N[C@H](CCCNC(=N)N)C(=O)N[C@H](CCCCN)C(N)=O)[C@H](C)CC)[C@H](C)CC)[C@H](C)CC [Control-all D, iirkiirk-NH2] (H-[dI][dI][dR][dK][dI][dI][dR][dK]-NH2; N-terminus assumed) | >500 µg/mL | 250 µg/mL (≈ 241 µM) | >500 µg/mL | >500 µg/mL | >500 µg/mL | >2000 mg/L | – | – |
| CC[C@@H](C)[C@@H](N)C(=O)N[C@H](CCCNC(=N)N)C(=O)N[C@@H](C(=O)N[C@H](CCCCN)C(=O)N[C@@H](C(=O)N[C@H](CCCNC(=N)N)C(N)=O)[C@H](C)CC)[C@H](C)CC [IK6-all D, irikir-NH2] (H-[dI][dR][dI][dK][dI][dR]-NH2; N-terminus assumed) | 125 µg/mL (≈ 157 µM) | 15.6 µg/mL (≈ 19.6 µM) | 62.5 µg/mL (≈ 78.4 µM) | 250 µg/mL (≈ 314 µM) | – | – | 113.3 µg/mL | – |
| CC[C@H](C)[C@H](N)C(=O)N[C@@H](CCCNC(=N)N)C(=O)N[C@H](C(=O)N[C@H](CCCCN)C(=O)N[C@H](C(=O)N[C@H](CCCNC(=N)N)C(=O)N[C@H](C(=O)N[C@@H](CCCCN)C(N)=O)[C@@H](C)CC)[C@@H](C)CC)[C@@H](C)CC [IK8-2D, IRIkIrIK-NH2] (H-IRI[dK]I[dR]IK-NH2; N-terminus assumed) | 7.8 µg/mL (≈ 7.51 µM) | 3.9 µg/mL (≈ 3.76 µM) | 15.6 µg/mL (≈ 15 µM) | 31.3 µg/mL (≈ 30.1 µM) | 3.9 µg/mL (≈ 3.76 µM) | 1600 mg/L | 12.5 µg/mL | MIC M. tuberculosis ([7]; strain number 1173): 62.5 µg/mL (≈ 60.2 µM); MIC M. tuberculosis ([7]; strain number 1177): 62.5 µg/mL (≈ 60.2 µM); MIC M. tuberculosis ([7]; strain number 1178): 62.5 µg/mL (≈ 60.2 µM); MIC M. tuberculosis ([7]; strain number 1179): 125 µg/mL (≈ 120 µM) |
| CC[C@@H](C)[C@@H](N)C(=O)N[C@H](CCCNC(=N)N)C(=O)N[C@@H](C(=O)N[C@H](CCCCN)C(=O)N[C@@H](C(=O)N[C@H](CCCNC(=N)N)C(=O)N[C@@H](C(=O)N[C@H](CCCCN)C(=O)N[C@@H](C(=O)N[C@H](CCCNC(=N)N)C(=O)N[C@@H](C(=O)N[C@H](CCCCN)C(N)=O)C(C)C)[C@H](C)CC)C(C)C)[C@H](C)CC)C(C)C [IK12-all D, irvkirvkirvk-NH2] (H-[dI][dR][dV][dK][dI][dR][dV][dK][dI][dR][dV][dK]-NH2; N-terminus assumed) | 15.6 µg/mL (≈ 10.4 µM) | 31.3 µg/mL (≈ 20.8 µM) | 7.8 µg/mL (≈ 5.18 µM) | 7.8 µg/mL (≈ 5.18 µM) | 1.0 µg/mL (≈ 0.664 µM) | >125^e) mg L^−1 | 12.7 µg/mL | fold reduction in MIC values compared with the L-enantiomer ([6]; against the various bacteria): 2-4 fold |
| Polymyxin B [reference compound] | – | – | – | – | – | – | – | MIC E. coli (E. coli [8]): 2.0 µg/mL; MIC S. epidermidis (S. epidermidis [9]): 15.6 µg/mL; MIC P. aeruginosa (P. aeruginosa [10]): 2.0 µg/mL; LD50 reported for comparator (mice): 5.4 mg/kg; MIC C. albicans (C. albicans [11]): 62.5 µg/mL; MIC S. aureus (S. aureus [12]): 125 µg/mL; GM, geometric mean of MIC values for the 5 microorganisms tested [13]: 41.4 µg/mL |
| gentamicin sulfate | – | – | – | – | – | – | – | MICn/MIC0 (E. coli [14]; passage 2): 2; MICn/MIC0 (E. coli [14]; passage 6): 4 |
| gramicidin | – | – | – | – | – | – | – | LD50 reported for comparator (mice): 1.5 mg/kg |
